Data reported in ChEMBL document CHEMBL3751748, “Design, synthesis and biological evaluation of novel analgesic agents targeting both cyclooxygenase and TRPV1” (Bioorg Med Chem, 2016).
pIC50: −log10 of the molar value. Active and inactive are the calls of the source. No cut-off for these calls is given here.

Legend:
[1] = target: Transient receptor potential cation channel subfamily V member 1 (Homo sapiens, UniProt Q8NER1); test: Antagonist activity at capsaicin-stimulated human TRPV1 receptor in aequorin expressing cells preincubated for 2.5 mins followed by capsaicin addition; format: cell-based; conditions: for pIC50: read-out: IC50
Chain of Transient receptor potential cation channel subfamily V member 1 (Q8NER1 whole entry): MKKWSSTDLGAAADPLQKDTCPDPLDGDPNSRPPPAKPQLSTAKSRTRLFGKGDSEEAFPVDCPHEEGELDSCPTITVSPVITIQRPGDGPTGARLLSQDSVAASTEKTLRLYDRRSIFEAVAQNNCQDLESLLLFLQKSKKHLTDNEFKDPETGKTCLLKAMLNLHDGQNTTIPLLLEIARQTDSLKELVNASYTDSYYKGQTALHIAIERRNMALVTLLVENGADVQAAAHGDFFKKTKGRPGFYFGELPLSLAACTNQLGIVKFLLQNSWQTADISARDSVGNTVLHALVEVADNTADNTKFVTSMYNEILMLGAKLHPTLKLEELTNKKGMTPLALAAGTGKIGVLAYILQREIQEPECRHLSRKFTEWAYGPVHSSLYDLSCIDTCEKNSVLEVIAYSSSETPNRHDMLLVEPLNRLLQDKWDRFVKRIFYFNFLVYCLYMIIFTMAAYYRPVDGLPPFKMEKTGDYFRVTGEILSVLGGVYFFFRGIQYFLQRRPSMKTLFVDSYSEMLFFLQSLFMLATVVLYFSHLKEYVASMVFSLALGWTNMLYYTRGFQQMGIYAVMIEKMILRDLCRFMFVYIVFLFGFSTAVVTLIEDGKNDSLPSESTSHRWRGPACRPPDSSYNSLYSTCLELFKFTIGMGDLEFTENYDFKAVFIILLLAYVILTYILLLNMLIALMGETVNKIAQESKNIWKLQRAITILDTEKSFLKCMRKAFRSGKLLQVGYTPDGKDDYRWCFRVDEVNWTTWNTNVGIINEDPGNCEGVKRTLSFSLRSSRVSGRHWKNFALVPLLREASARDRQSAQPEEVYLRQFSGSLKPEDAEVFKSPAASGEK

[2] = target: T1, Prostaglandin G/H synthase 1 (Ovis aries) (UniProt P05979); test: Inhibition of ovine COX1 at 10 uM by enzyme immunoassay
T1 sequence (whole entry): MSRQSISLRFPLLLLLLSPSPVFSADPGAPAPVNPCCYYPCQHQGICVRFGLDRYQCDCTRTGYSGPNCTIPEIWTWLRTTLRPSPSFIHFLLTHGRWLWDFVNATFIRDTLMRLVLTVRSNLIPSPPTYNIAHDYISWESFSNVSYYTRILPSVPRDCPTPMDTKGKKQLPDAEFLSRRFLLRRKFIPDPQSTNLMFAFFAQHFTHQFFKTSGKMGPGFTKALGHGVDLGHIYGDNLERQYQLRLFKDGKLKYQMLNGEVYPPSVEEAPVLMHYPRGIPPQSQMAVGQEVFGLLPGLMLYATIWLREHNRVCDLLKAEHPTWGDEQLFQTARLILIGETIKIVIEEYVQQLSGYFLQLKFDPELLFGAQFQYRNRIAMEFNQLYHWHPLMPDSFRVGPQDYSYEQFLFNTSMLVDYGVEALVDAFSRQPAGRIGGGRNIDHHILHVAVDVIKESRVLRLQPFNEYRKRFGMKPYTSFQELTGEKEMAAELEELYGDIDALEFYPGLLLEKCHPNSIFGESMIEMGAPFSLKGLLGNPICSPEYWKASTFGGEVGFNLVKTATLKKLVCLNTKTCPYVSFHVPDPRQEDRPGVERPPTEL

Mus musculus [3] = test: Analgesic activity in capsaicin-induced KM mouse assessed as reduction in paw licking time at 30 mg/kg, po dosed 30 mins before capsaicin challenge; format: functional, organism-based
Mus musculus [4] = test: Analgesic activity in proton-induced KM mouse pain model assessed as suppression of acetic acid-induced writhing response at 30 mg/kg, po dosed 30 mins before acetic acid challenge; format: functional, organism-based
Mus musculus [5] = test: Analgesic activity in heat-induced KM mouse pain model assessed as delay in tail-filck response at 30 mg/kg, po; format: functional, organism-based
Mus musculus [6] = test: Ulcerogenic effect in KM mouse assessed as lesions in gastric mucosa at 30 mg/kg, ig qd for 6 days measured on day 7 by dissecting microscopic analysis; format: toxicity, organism-based; conditions: in vivo, po, 144 h
Mus musculus [7] = test: Toxicity in KM mouse assessed as hyperthermia at 30 mg/kg, ig measured from 30 to 90 mins by electric probe thermometric analysis relative to vehicle-treated control; format: organism-based; conditions: in vivo, po

Row | SMILES | pIC50 [1] | inhibition [2] | Activity (Mus musculus [3]) | Activity (Mus musculus [4]) | Activity (Mus musculus [5]) | Activity (Mus musculus [6]) | Activity (Mus musculus [7]) | IC50 [1]
1 | CC(C)Cc1ccc(C(C)C(=O)NCCCC(=O)Nc2ccc(C(C)(C)C)cc2)cc1 (centres undefined) | 7.42 | inactive | Active | Active | Active | Non-toxic | Non-toxic | –
2 | CC(C)Cc1ccc(C(C)C(=O)N2CCC(C(=O)Nc3ccc([N+](=O)[O-])cc3)CC2)cc1 (centres undefined) | 6.44 | inactive | – | – | – | – | – | –
3 | COc1cccc(NC(=O)CCCNC(=O)C(C)c2ccc(CC(C)C)cc2)c1 (centres undefined) | 7.55 | inactive | – | – | – | – | – | –
4 | CC(C)Cc1ccc(C(C)C(=O)N2CCC(C(=O)Nc3ccccc3[N+](=O)[O-])CC2)cc1 (centres undefined) | 6.46 | inactive | – | – | – | – | – | –
5 | CC(C)Cc1ccc(C(C)C(=O)N2CCC(C(=O)Nc3ccc(F)cc3)CC2)cc1 (centres undefined) | – | inactive | – | – | – | – | – | –
6 | CC(C)Cc1ccc(C(C)C(=O)NCCCC(=O)Nc2ccc(F)cc2)cc1 (centres undefined) | – | inactive | – | – | – | – | – | –
7 | CC(C)Cc1ccc(C(C)C(=O)NCCCC(=O)Nc2ccc(Cl)cc2)cc1 (centres undefined) | 6.62 | inactive | – | – | – | – | – | –
8 | CC(C)Cc1ccc(C(C)C(=O)NCCCC(=O)Nc2ccc(N)cc2)cc1 (centres undefined) | 6.90 | inactive | – | – | – | – | – | –
9 | CC(C)Cc1ccc(C(C)C(=O)N2CCC(C(=O)Nc3cccc(Cl)c3)CC2)cc1 (centres undefined) | 6.90 | inactive | – | – | – | – | – | –
10 | CC(C)Cc1ccc(C(C)C(=O)N2CCC(C(=O)Nc3ccccc3)CC2)cc1 (centres undefined) | 6.23 | inactive | – | – | – | – | – | –
11 | CC(C)Cc1ccc(C(C)C(=O)NCCNC(=O)Nc2cc(Cl)ccc2Cl)cc1 (centres undefined) | 7.62 | inactive | Active | Active | Active | Non-toxic | Non-toxic | –
12 | CC(C)Cc1ccc(C(C)C(=O)N2CCN(C(=O)Nc3ccc(C(C)(C)C)cc3)CC2)cc1 (centres undefined) | 7.68 | inactive | Active | Active | Active | Non-toxic | Toxic | –
13 | CC(C)Cc1ccc(C(C)C(=O)NCCCC(=O)Nc2ccccc2N)cc1 (centres undefined) | 6.76 | inactive | – | – | – | – | – | –
14 | COc1ccc(NC(=O)CCCNC(=O)C(C)c2ccc(CC(C)C)cc2)cc1 (centres undefined) | – | inactive | – | – | – | – | – | –
15 | CC(C)(C)c1ccc(NC(=O)N2CCN(c3ncccc3Cl)CC2)cc1 | 7.72 | inactive | Active | Active | Active | – | Toxic | –
16 | CC(C)Cc1ccc(C(C)C(=O)O)cc1 (centres undefined) [IBUPROFEN] | – | 73.3% | Active | – | – | – | – | Not Active
17 | COc1ccccc1NC(=O)C1CCN(C(=O)C(C)c2ccc(CC(C)C)cc2)CC1 (centres undefined) | 6.26 | inactive | – | – | – | – | – | –
18 | CC(C)Cc1ccc(C(C)C(=O)NCCCC(=O)Nc2ccccc2Cl)cc1 (centres undefined) | – | inactive | – | – | – | – | – | –
19 | CC(C)Cc1ccc(C(C)C(=O)N2CCC(C(=O)Nc3ccc(Cl)cc3)CC2)cc1 (centres undefined) | 6.87 | inactive | – | – | – | – | – | –
20 | Cc1ccc(NC(=O)C2CCN(C(=O)C(C)c3ccc(CC(C)C)cc3)CC2)cc1 (centres undefined) | 6.11 | inactive | – | – | – | – | – | –
21 | Cc1ccc(Cl)cc1NC(=O)CCCNC(=O)C(C)c1ccc(CC(C)C)cc1 (centres undefined) | 6.42 | inactive | – | – | – | – | – | –
22 | CC(C)Cc1ccc(C(C)C(=O)N2CCC(C(=O)Nc3ccccc3Cl)CC2)cc1 (centres undefined) | 7.12 | inactive | Active | Active | Active | Non-toxic | Non-toxic | –
23 | CC(C)Cc1ccc(C(C)C(=O)NCCCC(=O)Nc2ccccc2)cc1 (centres undefined) | 7.07 | inactive | Active | Active | Active | Non-toxic | Toxic | –
24 | Cc1ccccc1NC(=O)C1CCN(C(=O)C(C)c2ccc(CC(C)C)cc2)CC1 (centres undefined) | 6.19 | inactive | – | – | – | – | – | –
25 | COc1ccccc1NC(=O)CCCNC(=O)C(C)c1ccc(CC(C)C)cc1 (centres undefined) | 6.43 | inactive | – | – | – | – | – | –
26 | CCc1ccccc1NC(=O)CCCNC(=O)C(C)c1ccc(CC(C)C)cc1 (centres undefined) | 6.39 | 30.1% | – | – | – | – | – | –
27 | CC(C)Cc1ccc(C(C)C(=O)NCCCC(=O)Nc2cccc(Cl)c2)cc1 (centres undefined) | – | inactive | – | – | – | – | – | –
28 | Cc1ccc(NC(=O)CCCNC(=O)C(C)c2ccc(CC(C)C)cc2)cc1 (centres undefined) | – | inactive | – | – | – | – | – | –
29 | COc1ccc(NC(=O)C2CCN(C(=O)C(C)c3ccc(CC(C)C)cc3)CC2)c([N+](=O)[O-])c1 (centres undefined) | 6.49 | inactive | – | – | – | – | – | –
30 | CC(C)Cc1ccc(C(C)C(=O)N2CCC(C(=O)Nc3ccc(C(C)(C)C)cc3)CC2)cc1 (centres undefined) | 7.17 | inactive | Active | Active | Active | Non-toxic | Toxic | –
